Laboratory results from US7868005B2, “Pyrazinyl substituted piperazine-piperidines with CXCR3 antagonist activity” (Schering Corporation, priority 2005, dated 2011).

Biological target: T1, human CXCR3 (N-delta 4) (Homo sapiens, UniProt P49682)
T1 construct: CD8 leader (N); Flag; expressed in transfected cells; membranes prepared
T1 sequence (P49682 5-368 limits assumed): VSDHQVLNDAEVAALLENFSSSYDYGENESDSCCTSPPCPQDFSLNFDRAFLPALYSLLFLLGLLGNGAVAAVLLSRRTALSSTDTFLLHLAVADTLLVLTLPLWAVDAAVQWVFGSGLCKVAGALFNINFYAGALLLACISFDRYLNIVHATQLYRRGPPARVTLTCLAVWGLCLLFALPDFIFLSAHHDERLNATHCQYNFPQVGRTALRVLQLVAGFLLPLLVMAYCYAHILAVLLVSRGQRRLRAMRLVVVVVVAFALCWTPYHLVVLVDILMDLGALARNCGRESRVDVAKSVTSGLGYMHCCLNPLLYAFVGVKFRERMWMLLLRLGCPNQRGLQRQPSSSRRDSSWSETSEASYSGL
Experiment: Human CXCR3 (N-delta 4) Scintillation Proximity Assay (SPA), [125I] IP-10 binding to Ba/F3-hCXCR3 membranes
Details: IC50 rating, Table 1; read-out: IC50
From the text: The inventive compounds can readily be evaluated to determine activity at the CXCR3 receptors by known methods, such as, for example, development of a human CXCR3 (N-delta 4) Binding Assay.
Cloning and Expression of Human CXCR3 (N-delta 4):
The DNA encoding human CXCR3 was cloned by PCR using human genomic DNA (Promega, Madison, Wis.) as a template. The PCR primers were designed based on the published sequence of human orphan receptor GPR9 (1) with incorporated restriction sites, a Kozak consensus sequence, CD8 leader and Flag tag. The PCR product was subcloned into the mammalian expression vector pME18Sneo, a derivative of the SR-alpha expression vector (designated as pME18Sneo-hCXCR3 (N-delta 4).
IL-3-dependent mouse pro-B cells Ba/F3 were transfected by electroporation in 0.4 ml Dulbecco's PBS containing 4×10^6 cells with 20 μg of pME18Sneo-hCXCR3 (N-delta 4) plasmid DNA. Cells were pulsed at 400 Volts, 100 OHMs, 960 μFd. The transfected cells were under selection with 1 mg/ml G418 (Life Technologies, Gaithersburg, Md.). G418-resistant Ba/F3 clones were screened for CXCR3 expression by specific binding of [^125I] IP-10 (NEN Life Science Products, Boston, Mass.).
Preparation of Ba/F3-hCXCR3 (N-delta 4) Membranes:
Ba/F3 cells expressing human CXCR3 (N-delta 4) were pelleted and resuspended in the lysis buffer containing 10 mM HEPES, pH 7.5 and Complete® protease inhibitors (1 tablet per 100 ml) (Boehringer Mannheim, Indianapolis, Ind.) at a cell density of 20×10^6 cells per ml. After 5 minute incubation on ice, cells were transferred to 4639 cell disruption bomb (Parr Instrument, Moline, Ill.) and applied with 1,500 psi of nitrogen for 30 minutes on ice. Large cellular debris was removed by centrifugation at 1,000×g. Cell membrane in the supernatant was sedimented at 100,000×g. The membrane was resuspended in the lysis buffer supplemented with 10% sucrose and stored at −80° C. Total protein concentration of the membrane was determined by BCA method from Pierce (Rockford, Ill.).
Human CXCR3 (N-delta 4) Scintillation Proximity Assay (SPA):
For each assay point, 2 μg of membrane was preincubated for 1 hr with 300 μg wheat germ agglutinin (WGA) coated SPA beads (Amersham, Arlington Heights, Ill.) in the binding buffer (50 mM HEPES, 1 mM CaCl2, 5 mM MgCl2, 125 mM NaCl, 0.002% NaN3, 1.0% BSA) at room temperature. The beads were spun down, washed once, resuspended in the binding buffer and transferred to a 96-well Isoplate (Wallac, Gaithersburg, Md.). 25 pM of [^125I] IP-10 with tested compounds in a series of titration were added to start the reaction. After 3 hr reaction at room temperature, the amount of [^125I] IP-10 bound to the SPA beads was determined with a Wallac 1450 Microbeta counter.
The Ki ratings for the various compounds of the present invention are given in the afore-mentioned Table 1. From these ratings and value ranges, it would be apparent to the skilled artisan that the compounds of the invention have excellent utility as CXCR3 receptor antagonists.

| Compound | IC50 [nM] |
| --- | --- |
| CC[C@H]1CN(c2nc(N)c(C(=O)NC)nc2Cl)CCN1C1CCN(CCCCc2ccc(Cl)cc2)CC1 [compound 72] | 25 to 100 |
| CC[C@H]1CN(c2nc(N)c(C(=O)NC)nc2Cl)CCN1C1CCN(C(=O)c2c(C)cc(OCc3ccccc3)cc2C)CC1 [compound 367] | > 100 |
| CC[C@H]1CN(c2nc(N)c(C(N)=O)nc2Cl)CCN1C1CCN(Cc2ccc(F)c(F)c2N2CCC[C@H]2C(C)(C)O)CC1 [compound 60] | > 100 |
| CC[C@H]1CN(c2nc(N)c(C(N)=O)nc2Cl)CCN1C1CCN(Cc2ccc(Cl)cc2CC(=O)NCC(C)O)CC1 (stereo partly drawn) [compound 21] | < 25 |
| CC[C@H]1CN(c2nc(N)c(C(=O)O)nc2Cl)CCN1C1CCN(Cc2ccc(Cl)cc2)CC1 [compound 293] | > 100 |
| CC[C@H]1CN(c2nc(N)c(C(=O)NCCO)nc2Cl)CCN1C1CCN(C(c2ccc(Cl)cc2)c2nccs2)CC1 (stereo partly drawn) [compound 207] | > 100 |
| CC[C@H]1CN(c2nc(N)c(C(=O)N3CCN(S(C)(=O)=O)CC3)nc2Cl)CCN1C1CCN(Cc2ccc(Cl)cc2)CC1 [compound 313] | > 100 |
| CCNC(=O)c1nc(Cl)c(N2CCN(C3CCN(C(=O)c4ccc(Cl)cc4)CC3)[C@@H](CC)C2)nc1N [compound 332] | < 25 |
| CC[C@H]1CN(c2nc(N)c(C(N)=O)nc2Cl)CCN1C1CCN(Cc2ccc(Cl)cc2CC(N)=O)CC1 [compound 17] | < 25 |
| CC[C@H]1CN(c2nc(N)c(C(=O)N[C@H]3CCN(C)C3=O)nc2Cl)CCN1C1CCN(Cc2ccc(C#N)cc2)CC1 [compound 211] | > 100 |
| CC[C@H]1CN(c2nc(N)c(C(=O)NC3CC3)nc2Cl)CCN1C1CCN(C(=O)c2ccc(Cl)cc2O)CC1 [compound 314] | < 25 |
| CC[C@H]1CN(c2nc(N)c(C(=O)NCC(F)(F)F)nc2Cl)CCN1C1CCN(Cc2ccc(Cl)cc2)CC1 [compound 216] | < 25 |
| CC[C@H]1CN(c2nc(N)c(C(=O)NCCO)nc2Cl)CCN1C1CCN(Cc2ccc(Cl)cc2C(=O)NCCO)CC1 [compound 176] | < 25 |
| CC[C@H]1CN(c2ncc(C(=O)NC)nc2C)CCN1C1CCN(C(=O)c2ccc(F)cc2)CC1 [compound 435] | < 25 |
| CC[C@H]1CN(c2ncc(C(N)=O)nc2Cl)CCN1C1CCN([C@@H](C(=O)OC)c2ccc(Cl)cc2)CC1 [compound 476] | < 25 |
| CCc1nc(C(N)=O)cnc1N1CCN(C2CCN(C(=O)c3ccc(Cl)cc3)CC2)[C@@H](CC)C1 [compound 423] | 25 to 100 |
| CC[C@H]1CN(c2nc(N)c(C(=O)NC3CC3)nc2Cl)CCN1C1CCN(Cc2ccc(OCC(N)=O)cc2)CC1 [compound 97] | > 100 |
| CC[C@H]1CN(c2nc(N)c(C(=O)NCCO)nc2Cl)CCN1C1CCN(Cc2ccc(Cl)cc2C(=O)N2CCOCC2)CC1 [compound 197] | > 100 |
| CCOC(=O)C1CCC(Oc2ccc(CN3CCC(N4CCN(c5nc(N)c(C(N)=O)nc5Cl)C[C@@H]4CC)CC3)cc2)CC1 (stereo partly drawn) [compound 53] | > 100 |
| CC[C@H]1CN(c2ncc(C(=O)NC3CC3)nc2C)CCN1C1CCN(C(=O)c2ccc(F)cc2F)CC1 [compound 462] | < 25 |
| CC[C@H]1CN(c2nc(N)c(C(N)=O)nc2Cl)CCN1[C@H]1CCN(Cc2ccc(Cl)cc2)C[C@@H]1O [compound 283] | > 100 |
| CC[C@H]1CN(c2nc(N)c(C(=O)NCCO)nc2Cl)CCN1C1CCN(C(C(=O)O)c2ccc(Cl)cc2)CC1 (stereo partly drawn) [compound 184] | 25 to 100 |
| CC[C@H]1CN(c2nc(N)c(C(=O)NCCO)nc2Cl)CCN1C1CCN(Cc2ccc(C#N)cc2OCCO)CC1 [compound 173] | < 25 |
| CC[C@H]1CN(c2nc(N)c(C(=O)NC)nc2Cl)CCN1C1CCN([C@@H](C(=O)NC)c2ccc(Cl)cc2)CC1 [compound 71] | 25 to 100 |

| Compound | IC50 [nM] |
| --- | --- |
| CC[C@H]1CN(c2nc(N)c(C(=O)NCCO)nc2Cl)CCN1C1CCN([C@@H](C(=O)OC)c2ccc(F)c(F)c2)CC1 [compound 185] | 25 to 100 |
| CC[C@H]1CN(c2nc(N)c(C(=O)NCCNS(N)(=O)=O)nc2Cl)CCN1C1CCN(Cc2ccc(Cl)cc2C(=N)N)CC1 [compound 258] | < 25 |
| CC[C@H]1CN(c2nc(N)c(C(=O)NC)nc2Cl)CCN1C1CCN(C(=O)c2ccc(Cl)c(NS(C)(=O)=O)c2)CC1 [compound 364] | > 100 |
| CC[C@H]1CN(c2nc(N)c(C(N)=O)nc2Cl)CCN1C1CCN([C@@H](C(=O)OC)c2ccc(Cl)cc2)CC1 [compound 56] | > 100 |
| CC[C@H]1CN(c2nc(N)c(C(=O)NCCO)nc2Cl)CCN1C1CCN(Cc2ccc(Oc3ccc(F)cc3)cc2)CC1 [compound 162] | < 25 |
| CC[C@H]1CN(c2nc(N)c(C(=O)NCCO)nc2Cl)CCN1C1CCN(Cc2ccc(F)cc2)CC1 [compound 133] | < 25 |
| CC[C@H]1CN(c2nc(N)c(C(=O)NCCNS(N)(=O)=O)nc2Cl)CCN1C1CCN(C(CO)c2ccc(Cl)cc2)CC1 (stereo partly drawn) [compound 259] | < 25 |
| CC[C@H]1CN(c2nc(N)c(C(=O)NCCO)nc2Cl)CCN1C1CCN(Cc2ccc(F)c(OS(C)(=O)=O)c2)CC1 [compound 421] | < 25 |
| CC[C@H]1CN(c2nc(N)c(C(=O)NCCO)nc2Cl)CCN1C1CCN(Cc2ccc(Cl)cc2NC(N)=O)CC1 [compound 156] | < 25 |
| CC[C@H]1CN(c2nc(N)c(C(N)=O)nc2Cl)CCN1C1CCN(Cc2ccc(Cl)cc2CC(C)(C)O)CC1 [compound 30] | 25 to 100 |
| CCNC(=O)c1nc(Cl)c(N2CCN(C3CCN(C(C)(C)c4ccc(Cl)cc4)CC3)[C@@H](C)C2)nc1N [compound 106] | > 100 |
| CC[C@H]1CN(c2nc(N)c(C(=O)NC)nc2Cl)CCN1C1(C)CCN(Cc2ccc(Cl)cc2C(=O)NC)CC1 [compound 81] | > 100 |
| CC[C@H]1CN(c2nc(N)c(C(=O)NC)nc2Cl)CCN1C1CCN(Cc2ccc(-n3cncn3)cc2)CC1 [compound 75] | 25 to 100 |
| CC[C@H]1CN(c2nc(N)c(C(=O)NCCO)nc2Cl)CCN1C1CCN(Cc2ccc(OC(F)(F)F)cc2OCC(N)=O)CC1 [compound 174] | < 25 |
| CC[C@H]1CN(c2ncc(C(=O)NC3CC3)nc2C)CCN1C1CCN(Cc2ccc(Cl)c(OCCS(C)(=O)=O)c2)CC1 [compound 492] | < 25 |
| CC[C@H]1CN(c2nc(N)c(C(N)=O)nc2Cl)CCN1C1CCN(Cc2ccc(Cl)cc2C(=O)O)CC1 [compound 26] | 25 to 100 |
| CC[C@H]1CN(c2nc(N)c(C(=O)NCCO)nc2Cl)CCN1C1CCN(Cc2ccc(-c3ccc(F)cc3)cc2)CC1 [compound 140] | < 25 |
| CC[C@H]1CN(c2nc(N)c(C(=O)NCCO)nc2Cl)CCN1C1CCN(C(=O)c2ccc(CS(C)(=O)=O)cc2)CC1 [compound 430] | > 100 |
| CC[C@H]1CN(c2nc(N)c(C(=O)NCCO)nc2Cl)CCN1C1CCN(Cc2ccc(O)c(F)c2)CC1 [compound 427] | > 100 |
| CC[C@H]1CN(c2nc(N)c(C(N)=O)nc2Cl)CCN1C1CCN(Cc2ccc(C(=O)OC)cc2)CC1 [compound 15] | < 25 |
| CC[C@H]1CN(c2nc(N)c(C(N)=O)nc2Cl)CCN1C1CCN(Cc2ccc(Cl)cc2CC(=O)N2CC[C@@H](O)C2)CC1 [compound 51] | > 100 |
| CC[C@H]1CN(c2nc(N)c(C(=O)NCCNS(=O)(=O)C(F)(F)F)nc2Cl)CCN1C1CCN(Cc2ccc(C#N)cc2)CC1 [compound 239] | < 25 |
| CC[C@H]1CN(c2nc(N)c(C(=O)NCCCNS(C)(=O)=O)nc2Cl)CCN1C1CCN(Cc2ccc(C#N)cc2)CC1 [compound 226] | > 100 |
| CC[C@H]1CN(c2ncc(C(=O)NC3CC3)nc2C)CCN1C1CCN(Cc2ccc(C)cc2)CC1 [compound 439] | < 25 |
